Consider 5 compounds from publication PMC10925993, “6-Aryl-4-cycloamino-1,3,5-triazine-2-amines: synthesis, antileukemic activity, and 3D-QSAR modelling” (RSC Advances, 2024).

In series [1] the test system is Jurkat T cells. As to the kind of experiment: Antiproliferative screening at 10 μM, MTS assay. Type of series: cell-based, human. To be noted: Homo sapiens; Jurkat T cells, 10 μM, 72 h after treatment, MTS; mean of three independent experiments; read-out: Cell viability (%). The essentials: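 Jurkat cells at 2 × 10^3 per well were grown 24 h, then exposed to compound for 72 h. Viability came from MTS absorbance at 490 nm relative to vehicle-treated wells. GI50 was derived from sigmoidal concentration-response curves.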
(In general: Tetrazolium dyes change colour on reduction, which living cells bring about.)

In series [2] the test system is Jurkat T cells. As to the kind of experiment: Inhibition of Jurkat T cell growth (GI50), MTS assay. In kind it is cell-based. To be noted: Homo sapiens. The procedure:
These compounds were selected for further testing to estimate their 50% growth inhibition (GI50) value. Standard antileukemic drugs mercaptopurine, methotrexate and cytarabine were chosen as positive controls.
An MTS (3-(4,5-dimethylthiazol-2-yl)-5-(3-carboxymethoxyphenyl)-2-(4-sulfophenyl)-2H-tetrazolium inner salt) assay[20] was used to assess the leukemic cell viability. Jurkat T cells (human leukemic T cell, clone E6-1) from American Type Culture Collection (ATCC) were cultured in RPMI-1640 medium (Nacalai Tesque, Japan) supplemented with 10% v/v fetal bovine serum (FBS) (Biosera, France). The cells were maintained at 37 °C in a humidified 5% CO2 incubator (Thermo Fisher, USA). A total of 2 × 10^3 cells per 100 μL cell culture media were seeded into each well of a 96-well plate and incubated for 24 h. Then, tested compounds or reference drugs [6-mercaptopurine (Merck Millipore, Germany), methotrexate (Merck Millipore, Germany) and cytarabine (Merck Millipore, Germany)] were added, followed by incubation for 72 h. After that, a mixture of MTS (Sigma Aldrich, USA) and phenazine methosulfate (PMS) (Nacalai Tesque, Japan) were added to each well, followed by another incubation for 1 h to 4 h at 37 °C. The absorbance in each well was measured at 490 nm using a microplate reader (Tecan NanoQuant Infinite M200 Pro, Austria). The percentage of cell viability was estimated by comparing absorbance in wells with the treated and untreated (vehicle control) cells using the following formula: ODtreated/ODuntreated × 100%. All experiments were performed in triplicate and repeated in three independent experiments. The GI50 values were calculated using sigmoidal concentration-response curves generated by the GraphPad Prism 8 program.[21]

Series [3] relates to Jurkat T cells. As to the kind of experiment: AO/PI double fluorescence staining, cell morphology study. In kind it is cell-based, human. To be noted: treatment at GI50 concentration, 24 h, 48 h, 72 h. The method, then:
The GI50 value for this compound was selected as the treatment concentration. […] Moreover, some Jurkat T cells underwent late stages of apoptosis as shown by the reddish-orange stain (Fig. 4C). Similar events also occurred 48 h and 72 h after the treatment but with a lower number of viable cells (Fig. 4D and E).
Fluorescence microscopy was applied to portray apoptotic and necrotic changes in Jurkat T cells using AO/PI fluorescence staining.[23] The Jurkat T cells were cultured as described above. A total of 5 × 10^5 cells (based on the doubling time for the cell line) per 1 mL cell culture media were seeded into each well of a 6-well plate (Biologix, USA) and incubated for 24 h. […] The fluorescence dye containing AO (10 μg mL^−1, 16 μL) and PI (10 μg mL^−1, 13 μL) was prepared immediately prior to use. The treated cells, positive and negative controls containing dyes were examined immediately under an inverted UV-fluorescent microscope (Nikon Ti2-E, Japan) to prevent fluorescence dyes from fading. The images of viable cells and non-viable cells after treatment were taken by Nikon Ti2-E software. The observations were repeated in three independent experiments.

Setting [4] is: GI50 against Jurkat T cells converted to negative logarithmic scale, read-out: Experimental pGI50 (converted).
[5] abbreviates: concentration required to inhibit Jurkat T cell growth by 50%, 72 h, MTS, mean of three independent experiments, read-out: GI50 ± SEM.

“Also recorded” adds a separate entry of the source. Where two headings read alike, the source gives them in different places.

Broadly, the viability is a per cent measure of how many cells are alive, often set against a control. For `Nc1nc(-c2cccc(F)c2)nc(N2CCc3ccccc3C2)n1` [Compound 9{6,2}, 6-(3-Fluorophenyl)-4-(3,4-dihydroisoquinolin-2(1H)-yl)-1,3,5-triazine-2-amine], the viability at 10 µM in the series on Jurkat T cells [1] is 1%. Also, the figures for the GI50 in the series on Jurkat T cells [2] (setting [4]) and in the series on Jurkat T cells [2] (setting [5]) were 1020 nM and 1020 ± 300 nM, respectively. Moreover, the “Jurkat T cell morphology, type of cell death (AO/PI staining)” value in the series on Jurkat T cells [3] is given as “necrotic type of cell death; also recorded: probably involved aponecrosis; also recorded: triggered the aponecrosis”.
For `CN(Cc1cnc2nc(N)nc(N)c2n1)c1ccc(C(=O)N[C@@H](CCC(=O)O)C(=O)O)cc1` [Methotrexate, methotrexate, reference compound], in the series on Jurkat T cells [2] (setting [5]), the GI50 was found to be 370 ± 30 nM. In the series on Jurkat T cells [3], the “Jurkat T cell morphology, type of cell death (AO/PI staining)” value is given as “induced the late apoptotic morphological changes”.
A word on the melting point: it is the temperature of the solid-liquid transition. `Nc1nc(-c2ccc(F)cc2)nc(N2CCc3ccccc32)n1` [9{7,3}, 6-(4-Fluorophenyl)-4-(indolin-1-yl)-1,3,5-triazine-2-amine] had a melting point of 195 to 196 °C. Besides, the viability at 10 µM in the series with Jurkat T cells [1] is 35%. Further, the GI50 in the series on Jurkat T cells [2] (setting [4]) is 1910 nM. The GI50 in the series with Jurkat T cells [2] (setting [5]) was 1890 ± 480 nM.
`Cc1cccc(-c2nc(N)nc(N3CCc4ccccc4C3)n2)c1` [9{6,5}, 6-(3-Methylphenyl)-4-(3,4-dihydroisoquinolin-2(1H)-yl)-1,3,5-triazine-2-amine]: the melting point lay in the range of 145 to 146 °C. Moreover, in the series on Jurkat T cells [1], the viability at 10 µM came to 2%. For the same compound, in the series with Jurkat T cells [2] (setting [4]), the GI50 is 1150 nM. The GI50 in the series on Jurkat T cells [2] (setting [5]) turned out to be 1140 ± 130 nM.
Compound `Nc1nc(-c2ccc(Cl)cc2)nc(N2CCc3ccccc3C2)n1` [9{6,4}, 6-(4-Chlorophenyl)-4-(3,4-dihydroisoquinolin-2(1H)-yl)-1,3,5-triazine-2-amine] showed a melting point of 183 to 184 °C. The viability at 10 µM with Jurkat T cells [1] is 2%. For the same compound, in the series on Jurkat T cells [2] (setting [4]), the GI50 is 3310 nM. For the same compound, the GI50 in the series with Jurkat T cells [2] (setting [5]) came out at 3300 ± 650 nM.
